experiment: Angiotensin II antagonism at the rat adrenal gland, IC50 (method of A.T. Chiu et al., J. Pharmacol. Exp. Therap. 250, 867-874 (1989)); assay type: binding, Ratten; conditions: an der Rattennebenniere; Iy and Iz tested as K-Salze; read-out: IC 50-Werte
Text: Diese Wirkungen können nach üblichen in vitro- oder in vivo-Methoden ermittelt werden, wie sie z.B. in der US-PS 4 880 804, der US-PS 5 036 048 und der WO 91/14367 beschrieben sind, ferner von A.T. Chiu et al., J. Pharmacol. Exp. Therap. 250, 867-874 (1989), und von P.C. Wong et al., ibid. 252, 719-725 (1990; in vivo, an Ratten).
So zeigten die K-Salze von 1,2-Dihydro-1-(2'-(1H-5-tetrazolyl)-biphenylyl-4-methyl)-2-oxo-3-N-methyl- bzw. -3-N-isopropyl-N-methylsulfonylaminomethyl-6-butyl-pyridin ("Iy" bzw. "Iz") an der Rattennebenniere (Versuchsmethodik vgl. A.T.Chiu et al., l.c.) IC 50-Werte von 1,15 bzw. 1,9 nM.l-¹, wahrend das bekannte 1,2-Dihydro-1-(2'-(1H-5-tetrazolyl)biphenylyl-4-methyl)-2-oxo-3-methylsulfonylaminomethyl-6-butyl-pyridin (vgl. EP 0 530 702 A1, Beispiel 22) im gleichen Test einen IC 50-Wert von 4,0 nM · l⁻¹ aufwies.

In order of falling IC50:
1. CCCCc1ccc(CNS(C)(=O)=O)c(=O)n1Cc1ccc(-c2ccccc2-c2nn[nH]n2)cc1 [EP 0 530 702 A1, Beispiel 22, 1,2-Dihydro-1-(2'-(1H-5-tetrazolyl)biphenylyl-4-methyl)-2-oxo-3-methylsulfonylaminomethyl-6-butyl-pyridin, reference compound]  4 nM
2. CCCCc1ccc(CN(C(C)C)S(C)(=O)=O)c(=O)n1Cc1ccc(-c2ccccc2-c2nn[nH]n2)cc1 [Iz, 1,2-Dihydro-1-(2'-(1H-5-tetrazolyl)-biphenylyl-4-methyl)-2-oxo-3-N-isopropyl-N-methylsulfonyl-aminomethyl-6-butyl-pyridin]  1.9 nM
3. CCCCc1ccc(CN(C)S(C)(=O)=O)c(=O)n1Cc1ccc(-c2ccccc2-c2nn[nH]n2)cc1 [Iy, 1,2-Dihydro-1-(2'-(1H-5-tetrazolyl)-biphenylyl-4-methyl)-2-oxo-3-N-methyl-N-methylsulfonyl-aminomethyl-6-butyl-pyridin]  1.15 nM
